{"source": "patent US12318375B2", "about": "“Method of treatment with tradipitant” (Vanda Pharmaceuticals Inc., priority 2015, dated 2025)", "key": {"[1]": {"system": "chronic pruritus in patients with atopic dermatitis", "assay": "Phase II proof of concept clinical study VP-VLY-686-2101: efficacy on pruritus measures", "type": "in vivo, human", "settings": "for VAS Average change (primary): tradipitant 100 mg qd oral in the evening", "method": "A phase II proof of concept clinical study (Study ID VP-VLY-686-2101, “Proof of Concept of VLY-686 in Subjects With Treatment-Resistant Pruritus Associated With Atopic Dermatitis”) was conducted, investigating the safety and efficacy of tradipitant as a monotherapy in the treatment of chronic pruritus in patients with atopic dermatitis.\nIn the study, patients with a Visual Analog Scale (VAS) score of greater than 70 mm during one of the two days preceding inclusion into the study were randomized to receive orally either 100 mg of tradipitant (N=34) or placebo (N=35) once a day in the evening. In the tradipitant arm of the study, tradipitant was orally administered to patients in capsules with standard excipients in an amount of 100 mg in the evening. Clinical assessments were made after 3 or 4 weeks of daily treatment, or at both 3 weeks and 4 weeks, each assessment being done in the morning of the day after last treatment or in the afternoon of the day after last treatment. The tradipitant was administered in an immediate release form comprising tradipitant and pharmaceutically acceptable excipients in a capsule. The tradipitant particle size was approximately: D10: <5 um, D50: <10 um, and D90: <25 um, wherein D10 means that 10% of the particles are of the indicated mean particle size, D50 means that 50% of the particles are of the indicated mean particle size, and D90 means that 90% of the particles are of the indicated mean particle size.\nBaseline VAS scores were 76.1 and 77.2 for the tradipitant and placebo arms respectively. Efficacy was evaluated through a number of clinical research instruments. In addition, at the time of efficacy evaluation blood samples were collected for PK analysis in order to determine the plasma levels of tradipitant."}, "[2]": {"assay": "Example 2: plasma concentration of tradipitant in healthy subjects (85 mg qd, then Q12H)", "type": "in vivo, human", "method": "In one study, healthy subject participants were orally administered 85 mg tradipitant on study day 3, and then 85 mg tradipitant Q12H on study days 4-16. Plasma concentration levels of tradipitant were measured on each of day 3, day 7, and day 11.\nThis study illustrated that administration of 85 mg tradipitant qd (on day 3) produced an average plasma concentration over hours 0-12 that was about 50% of the plasma concentration observed in the PM group in Example 1. On days 7 and 11, the average plasma concentration over hours 0-12 following administration of 85 mg bid (specifically, Q12H) tradipitant was about 150% of the plasma concentration observed in the PM group in Example 1. The average plasma concentration over hours 0-12 at each point was determined by dividing the AUC for hours 0-12 (in (hr.)×(ng/mL)) by 12 hours."}}, "data": [{"smiles": "O=C(c1ccccc1Cl)c1cccnc1-c1nnn(Cc2cc(C(F)(F)F)cc(C(F)(F)F)c2)c1-c1ccncc1", "note": "[Tradipitant, {2-[1-(3,5-Bistrifluoromethylbenzyl)-5-pyridin-4-yl-1H-[1,2,3]triazol-4-yl]-pyridin-3-yl}-(2-chlorophenyl)-methanone]", "values": [{"measurement": "endpoints that correspond to the underlying disease (SKINDEX, SCORAD objective, EASI and DLQI) compared with placebo", "setting": "[1]; 100 mg qd, 4-week study", "value": "did not show any significant difference from placebo"}, {"measurement": "VAS Average change (primary)", "setting": "[1]; AM group (morning assessment), N = 18, after 3 or 4 weeks", "value": "−54"}, {"measurement": "CGIC, Diff tradipitant vs placebo", "setting": "[1]; AM group, 100 mg qd", "value": "−1.15"}, {"measurement": "DLQI change, Diff tradipitant vs placebo", "setting": "[1]; AM group, 100 mg qd", "value": 0.35}, {"measurement": "PBI, Diff tradipitant vs placebo", "setting": "[1]; AM group, 100 mg qd", "value": 0.74}, {"measurement": "SCORAD change, Diff tradipitant vs placebo", "setting": "[1]; AM group, 100 mg qd", "value": "−5.23"}, {"measurement": "VAS Worst change, Diff tradipitant vs placebo", "setting": "[1]; AM group, 100 mg qd", "value": "−21.9"}, {"measurement": "VRS change, Diff tradipitant vs placebo", "setting": "[1]; AM group, 100 mg qd", "value": "−0.79"}, {"measurement": "PBI", "setting": "[1]; AM group, 100 mg qd, N = 18", "value": 1.47}, {"measurement": "VAS Average change, Diff tradipitant vs placebo", "setting": "[1]; AM group, 100 mg qd, tradipitant N = 18 vs placebo N = 17", "value": "−23.7"}, {"measurement": "VAS Average change (primary)", "setting": "[1]; PM group (afternoon assessment), N = 13, after 3 or 4 weeks", "value": "−28.8"}, {"measurement": "CGIC, Diff tradipitant vs placebo", "setting": "[1]; PM group, 100 mg qd", "value": 0.19}, {"measurement": "DLQI change, Diff tradipitant vs placebo", "setting": "[1]; PM group, 100 mg qd", "value": "−1.89"}, {"measurement": "PBI, Diff tradipitant vs placebo", "setting": "[1]; PM group, 100 mg qd", "value": "−0.39"}, {"measurement": "SCORAD change, Diff tradipitant vs placebo", "setting": "[1]; PM group, 100 mg qd", "value": 0.88}, {"measurement": "VAS Worst change, Diff tradipitant vs placebo", "setting": "[1]; PM group, 100 mg qd", "value": 8.99}, {"measurement": "VRS change, Diff tradipitant vs placebo", "setting": "[1]; PM group, 100 mg qd", "value": "−0.13"}, {"measurement": "efficacy analysis of pruritus measures compared with placebo", "setting": "[1]; PM group, 100 mg qd", "value": "no significant differences between tradipitant and placebo"}, {"measurement": "PBI", "setting": "[1]; PM group, 100 mg qd, N = 13", "value": 1.01}, {"measurement": "VAS Average change, Diff tradipitant vs placebo", "setting": "[1]; PM group, 100 mg qd, tradipitant N = 13 vs placebo N = 11", "value": 5.82}, {"measurement": "VAS change from baseline compared with placebo (pre-specified primary endpoint)", "setting": "[1]; all patients, 100 mg qd", "value": "no statistical difference from placebo"}, {"measurement": "average plasma concentration over hours 0-12 (AUC 0-12 divided by 12 hours) relative to PM group in Example 1", "setting": "[2]; day 3, 85 mg qd oral", "value": "about 50%"}, {"measurement": "average plasma concentration over hours 0-12 (AUC 0-12 divided by 12 hours) relative to PM group in Example 1", "setting": "[2]; days 7 and 11, 85 mg bid (Q12H) oral", "value": "about 150%"}]}]}
